Blank lines part the entries; values can stand above or below the molecule they belong to.
How the values were obtained:
ClpB NBD2 [1] = target: T1, ClpB NBD2 (Thermus thermophilus, UniProt Q9RA63, R806A); assay: stopped-flow FRET, displacement and competition with MANT-dADP, global fit; Kd = koff/kon; conditions: 50 mM Tris-HCl pH 7.5, 200 mM KCl, 5 mM MgCl2, 2 mM EDTA, 25 °C; read-out: Nucleotide binding / K d
Excerpt: (§1) stopped-flow FRET, displacement and competition with MANT-dADP, global fit; Kd = koff/kon on ClpB NBD2

ClpB NBD2 [2] = target: T2, ClpB NBD2 (Thermus thermophilus, UniProt Q9RA63, R621Q); assay: as above; conditions: 50 mM Tris-HCl pH 7.5, 200 mM KCl, 5 mM MgCl2, 2 mM EDTA, 25 °C; read-out: Nucleotide binding / K d
Excerpt: as §1

ClpB NBD2 [3] = target: T3, ClpB NBD2 (Thermus thermophilus, UniProt Q9RA63, N709A); assay: as above; type: binding; conditions: 50 mM Tris-HCl pH 7.5, 200 mM KCl, 5 mM MgCl2, 2 mM EDTA, 25 °C
Excerpt: as §1

ClpB NBD2 [4] = target: T4, ClpB NBD2 (Thermus thermophilus, UniProt Q9RA63); assay: X-ray crystal structure, […] Å; type: binding; conditions: co-crystal with 2 mM ADP, pH 7.0; nucleotide site of NBD2, no Mg2+ bound
T4 sequence (Q9RA63 520-854): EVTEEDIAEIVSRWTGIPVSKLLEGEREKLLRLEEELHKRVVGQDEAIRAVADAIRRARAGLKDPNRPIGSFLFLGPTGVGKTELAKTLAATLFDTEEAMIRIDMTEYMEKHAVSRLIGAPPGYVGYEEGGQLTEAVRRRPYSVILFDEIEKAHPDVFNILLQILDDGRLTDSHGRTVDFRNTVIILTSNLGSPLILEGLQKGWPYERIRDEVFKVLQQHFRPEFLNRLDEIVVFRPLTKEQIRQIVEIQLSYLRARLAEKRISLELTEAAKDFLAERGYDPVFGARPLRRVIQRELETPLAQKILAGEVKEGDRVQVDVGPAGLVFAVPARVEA

ClpB NBD2 [5] = target: T4, ClpB NBD2; assay: X-ray crystal structure, […] Å; type: binding; conditions: co-crystal with 2 mM AMPPCP, pH 7.0; nucleotide site of NBD2, no Mg2+ bound
ClpB NBD2 [6] = target: T1, ClpB NBD2; assay: stopped-flow FRET, direct mixing and displacement, global fit; Kd = koff/kon; type: binding; conditions: 50 mM Tris-HCl pH 7.5, 200 mM KCl, 5 mM MgCl2, 2 mM EDTA, 25 °C; labelled compound
Excerpt: (§2) stopped-flow FRET, direct mixing and displacement, global fit; Kd = koff/kon on ClpB NBD2

ClpB NBD2 [7] = target: T3, ClpB NBD2; assay: as above; type: binding; conditions: 50 mM Tris-HCl pH 7.5, 200 mM KCl, 5 mM MgCl2, 2 mM EDTA, 25 °C; labelled compound
Excerpt: as §2

ClpB NBD2 [8] = target: T2, ClpB NBD2; assay: as above; type: binding; conditions: 50 mM Tris-HCl pH 7.5, 200 mM KCl, 5 mM MgCl2, 2 mM EDTA, 25 °C; labelled compound
Excerpt: as §2

ClpB NBD2 [9] = target: T3, ClpB NBD2; assay: stopped-flow FRET, competition and displacement with MANT-dADP, global fit; Kd = koff/kon; conditions: 50 mM Tris-HCl pH 7.5, 200 mM KCl, 5 mM MgCl2, 2 mM EDTA, 25 °C; ATP-regenerating system (pyruvate kinase, phosphoenolpyruvate); read-out: Nucleotide binding / K d
Excerpt: (§3) stopped-flow FRET, competition and displacement with MANT-dADP, global fit; Kd = koff/kon on ClpB NBD2

ClpB NBD2 [10] = target: T1, ClpB NBD2; assay: as above; conditions: 50 mM Tris-HCl pH 7.5, 200 mM KCl, 5 mM MgCl2, 2 mM EDTA, 25 °C; ATP-regenerating system (pyruvate kinase, phosphoenolpyruvate); read-out: Nucleotide binding / K d
Excerpt: as §3

ClpB NBD2 [11] = target: T2, ClpB NBD2; assay: as above; conditions: 50 mM Tris-HCl pH 7.5, 200 mM KCl, 5 mM MgCl2, 2 mM EDTA, 25 °C; ATP-regenerating system (pyruvate kinase, phosphoenolpyruvate); read-out: Nucleotide binding / K d
Excerpt: as §3

T1 sequence (Q9RA63 520-854 R806A): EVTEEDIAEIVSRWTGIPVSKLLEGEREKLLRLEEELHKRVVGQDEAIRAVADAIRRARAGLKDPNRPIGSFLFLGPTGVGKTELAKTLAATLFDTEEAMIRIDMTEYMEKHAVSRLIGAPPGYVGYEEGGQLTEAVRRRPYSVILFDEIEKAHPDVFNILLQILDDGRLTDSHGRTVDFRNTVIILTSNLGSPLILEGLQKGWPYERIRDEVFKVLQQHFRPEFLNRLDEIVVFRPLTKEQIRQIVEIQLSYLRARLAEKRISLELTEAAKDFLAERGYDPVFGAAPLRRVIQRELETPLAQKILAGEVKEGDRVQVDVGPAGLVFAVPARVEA
T2 sequence (Q9RA63 520-854 R621Q): as the sequence (Q9RA63 520-854 R806A) above, with R102Q, A287R counted along it
T3 sequence (Q9RA63 520-854 N709A): as the sequence (Q9RA63 520-854 R806A) above, with N190A, A287R counted along it

SMILES: Nc1ncnc2c1ncn2[C@@H]1O[C@H](COP(=O)(O)OP(=O)(O)O)[C@@H](O)[C@H]1O [ADP]
- Kd (ClpB NBD2 [1]): 3.8 ± 0.06 µM
- Kd (ClpB NBD2 [2]): 1.5 ± 0.02 µM
- Nucleotide binding / K d (μM) (ClpB NBD2 [3]): 0.43 ± 8 × 10^−3 µM
- X-ray crystal structure, 2.4 Å (ClpB NBD2 [4]): Wild-type ClpB NBD2 in complex with ADP, PDB entry 4lj5

SMILES: Nc1ncnc2c1ncn2[C@@H]1O[C@H](COP(=O)(O)OP(=O)(O)CP(=O)(O)O)[C@@H](O)[C@H]1O [AMPPCP]
- X-ray crystal structure, 1.9 Å (ClpB NBD2 [5]): Wild-type ClpB NBD2 in complex with AMPPCP, PDB entry 4lj6

SMILES: Nc1ncnc2c1ncn2[C@@H]1O[C@H](COP(=O)(O)OP(=O)(O)OP(=O)(O)O)[C@@H](O)[C@H]1O [ATP]
- Kd (ClpB NBD2 [9]): 74 ± 3 µM
- Kd (ClpB NBD2 [10]): 84 ± 4 µM
- Kd (ClpB NBD2 [11]): 55 ± 2 µM

Other lines, results leading:

- Nucleotide binding / K d (μM) (ClpB NBD2 [6]): 0.29 ± 2 × 10^−3 µM
SMILES: CNc1ccccc1C(=O)O[C@H]1C[C@H](n2cnc3c(N)ncnc32)O[C@@H]1COP(=O)(O)OP(=O)(O)OP(=O)(O)O [MANT-dATP]

- Nucleotide binding / K d (μM) (ClpB NBD2 [7]): 0.0024 ± 3 × 10^−5 µM
- Nucleotide binding / K d (μM) (ClpB NBD2 [6]): 0.027 ± 1 × 10^−4 µM
- Nucleotide binding / K d (μM) (ClpB NBD2 [8]): 0.0068 ± 8 × 10^−5 µM
SMILES: CNc1ccccc1C(=O)O[C@H]1C[C@H](n2cnc3c(N)ncnc32)O[C@@H]1COP(=O)(O)OP(=O)(O)O [MANT-dADP]
